Experimental data from ChEMBL document CHEMBL3616428, “Recent developments regarding the use of thieno[2,3-d]pyrimidin-4-one derivatives in medicinal chemistry, with a focus on their synthesis and anticancer properties” (Eur J Med Chem, 2015).

Experiments:
[1] = test system: HCT-116; assay: Anticancer activity against human HCT116 cells; format: functional, cell-based
[2] = test system: HCT-116; assay: Potency index, ratio imatinib IC50 to compound IC50 for human HCT116 cells; format: functional
[3] = test system: HepG2; assay: Anticancer activity against human HepG2 cells; format: functional, cell-based
[4] = test system: HepG2; assay: Anticancer activity against human HepG2 cells at 40 ug/ml after 72 hrs by MTT assay; format: functional; conditions: HepG2, 72 h
[5] = test system: MCF7; assay: Anticancer activity against human MCF7 cells at 40 ug/ml after 72 hrs by MTT assay; format: functional; conditions: MCF7, 72 h
[6] = test system: HepG2; assay: Anticancer activity against human HepG2 cells after 72 hrs by MTT assay; format: functional, cell-based; conditions: HepG2, 72 h
[7] = Anticancer activity against human […] cells after 72 hrs by MTT assay; format: functional, cell-based
[8] = test system: MCF7; assay: Anticancer activity against human MCF7 cells after 72 hrs by MTT assay; format: functional, cell-based; conditions: MCF7, 72 h
[9] = Anticancer activity against human Chronic myeloid leukemia cells at 10 uM after 24 hrs by MTT assay; format: functional; conditions: Leukemia cell
[10] = Anticancer activity against human Chronic myeloid leukemia cells at 20 uM after 24 hrs by MTT assay; format: functional; conditions: Leukemia cell
[11] = molecular target: Poly [ADP-ribose] polymerase 1 (Homo sapiens, UniProt P09874); assay: Inhibition of PARP1 (unknown origin)
Chain of Poly [ADP-ribose] polymerase 1 (P09874 whole entry): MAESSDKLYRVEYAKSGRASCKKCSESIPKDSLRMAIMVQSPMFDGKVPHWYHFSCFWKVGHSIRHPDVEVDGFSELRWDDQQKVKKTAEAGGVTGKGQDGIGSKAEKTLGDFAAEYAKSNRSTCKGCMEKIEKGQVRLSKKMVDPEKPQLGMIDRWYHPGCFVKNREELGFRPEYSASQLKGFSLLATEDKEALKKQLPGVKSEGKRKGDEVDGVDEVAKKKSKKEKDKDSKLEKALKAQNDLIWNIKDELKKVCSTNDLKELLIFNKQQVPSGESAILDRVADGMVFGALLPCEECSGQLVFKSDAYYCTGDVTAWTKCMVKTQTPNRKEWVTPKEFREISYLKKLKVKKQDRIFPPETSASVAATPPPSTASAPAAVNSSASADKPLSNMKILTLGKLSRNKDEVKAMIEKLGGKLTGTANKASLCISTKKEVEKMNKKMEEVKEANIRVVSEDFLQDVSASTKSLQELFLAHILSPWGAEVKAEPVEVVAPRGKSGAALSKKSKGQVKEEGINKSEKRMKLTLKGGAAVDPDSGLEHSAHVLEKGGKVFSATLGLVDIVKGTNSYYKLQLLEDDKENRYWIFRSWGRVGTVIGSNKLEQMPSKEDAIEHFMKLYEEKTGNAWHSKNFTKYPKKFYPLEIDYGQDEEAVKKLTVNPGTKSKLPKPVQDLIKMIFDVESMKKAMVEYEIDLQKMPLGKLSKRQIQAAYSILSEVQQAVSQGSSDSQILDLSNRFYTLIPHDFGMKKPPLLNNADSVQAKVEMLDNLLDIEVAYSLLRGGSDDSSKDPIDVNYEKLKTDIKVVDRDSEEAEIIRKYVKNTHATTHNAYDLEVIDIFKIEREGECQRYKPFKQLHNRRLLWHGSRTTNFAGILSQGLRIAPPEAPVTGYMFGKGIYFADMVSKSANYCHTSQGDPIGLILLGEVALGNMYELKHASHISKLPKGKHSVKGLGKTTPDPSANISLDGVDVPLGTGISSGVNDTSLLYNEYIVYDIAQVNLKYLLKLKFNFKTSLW

O=c1[nH]c(CNc2ccccc2)nc2sc3c(c12)CCCCCC3
IC50 [1]: 11.9 µM
Ratio IC50 [2]: 2.89

O=c1[nH]c(CNc2ccc(Cl)cc2)nc2sc3c(c12)CCCCCC3
IC50 [1]: 12.4 µM
Ratio IC50 [2]: 1.07

CC(=O)OC[C@H](OC(C)=O)[C@@H](OC(C)=O)[C@H](OC(C)=O)[C@H](OC(C)=O)c1nc2c3c4c(sc3nc(C)n2n1)CCc1ccccc1-4
IC50 [3]: 12 µM

O=c1c2c3c(sc2ncn1Cc1ccc(Br)cc1)CCC=C3
inhibition at 40 µg/mL [4]: 66.8%
inhibition at 40 µg/mL [5]: 66.8%
IC50 [6]: 15 µM
IC50 [7]: 45 µM
IC50 [8]: 78.9 µM

CC(C)(O)C#Cc1ncnc2sc3c(c12)CCC3
inhibition at 10 µM [9]: 30%
inhibition at 20 µM [10]: 54%

Cc1csc2ncnc(C#Cc3ccccn3)c12
inhibition at 10 µM [9]: 32%
inhibition at 20 µM [10]: 60%

NCc1nc2sc3c(c2c(=O)[nH]1)CCC3
IC50 [11]: 17 µM

O=c1[nH]cc(F)c(=O)[nH]1 [FLUOROURACIL]
inhibition at 40 µg/mL [4]: 68.2%
inhibition at 40 µg/mL [5]: 68.2%

Cc1ccc(NC(=O)c2ccc(CN3CCN(C)CC3)cc2)cc1Nc1nccc(-c2cccnc2)n1 [IMATINIB]
IC50 [1]: 34.4 µM
